From PMC9024893, “1,2,4-Trioxolane and 1,2,4,5-Tetraoxane Endoperoxides against Old-World Leishmania Parasites: In Vitro Activity and Mode of Action” (Pharmaceuticals, 2022)
Read-outs that look alike come from different tables or passages of the source.

Key:
Type in all cases: cell-based
[1] = tested on: L. infantum IMT151 intracellular amastigotes; assay: Intracellular amastigotes assay in J774A.1 macrophages, L. infantum; conditions: Leishmania infantum, J774.A1; 48 h incubation, J774A.1 host cells; read-out: IC50 ± SD, L. infantum intracellular amastigotes
Experimental: The intracellular assay using the macrophage J774A.1 cell line was performed with the compounds that presented best SI on the promastigote’s susceptibility assay. J774A.1 cells were adjusted to 2.5 × 10^5 cells/mL in supplemented DMEM medium. 200 μL/well of the cell suspension was placed in 16 well Lab Tek culture glass slides (Nunc), and incubated at 37 °C ± 1 °C, 5% CO2, for 3 h, to enable the cells to adhere to the slides. After a washing step with DMEM to discard non-attached cells, the cells were infected with 2.5 × 10^6 cells/mL promastigotes in a 10:1 parasite-host cell proportion for 24 h. Compounds and control drugs were added in two replicates of six serial concentrations (Table 3). As negative control, macrophages were cultivated in medium and DMSO, as vehicle solution (0.5% v/v). Slides were incubated for 48 h at the same temperature. After a washing step with 1× PBS (Sigma), slides were fixed and stained, and the infection index was calculated according to [34] by counting the number of intracellular amastigotes per 100 macrophages, in treated and untreated cells. Two independent experiments were performed to determine the amastigotes IC50 of each compound, which was calculated by fitting the data as a non-linear regression with variable slope using a dose-response inhibitory model, in the GraphPad Prism V 8.0 program. SI was determined as described above.

[2] = Cytotoxicity assay (MTT), J774A.1 cell line; conditions: mouse
Experimental: Adherent BALB/c mouse macrophage cell line J774A.1 (ATCC® TIB 67™) and suspension human acute monocytic leukemic cell line THP-1 (ATCC® TIB-202™) were purchased from DSMZ, Germany were cultured and maintained in DMEM medium (Gibco) and RPMI 1640 (Sigma), respectively, supplemented with 10% FBS, 1% penicillin-streptomycin (Sigma) and L-glutamine 200 mM (Sigma), at 37 °C, 5% CO2.
Cell lines J774A.1 and THP-1 were used to estimate CC50 of the peroxides. Cells were plated in 96-well flat bottom culture plates (VWR) at 5 × 10^5 cells/mL. The monocytic cell line THP-1 was differentiated in RPMI medium with phorbol myristate acetate (PMA) (25 ng/mL; Sigma) for 24 h, followed by a washing step with RPMI medium. Six serial concentrations of the compounds (Table 3) were added in four replicates and the plates were incubated at 37 °C ± 1 °C, 5% CO2 for 48 h. An untreated control (cells in DMEM or RPMI medium plus 0.5% DMSO as vehicle) and blank (medium alone) were plated out in quadruplicate. After the incubation period, 20 µL/well of MTT [3-(4,5-dimethylthiazol-2-yl)-2,5-diphenyltetrazolium bromide] was added to a final concentration of 5 µg/mL in 1× phosphate-buffered saline (PBS, Merck), with an additional 4 h incubation at 36 °C, as previously described. The formazan salts were resuspended in 2-propanol (Merck) and the cell viability was determined by measuring absorbance with a Synergy ™HTX Multi Mode Microplate Reader at 595 nm (Dynex Technologies). The CC50 values were calculated fitting the data as a non-linear regression with variable slope using a dose-response inhibitory model, in the GraphPad Prism V 8.0 program. Each compound was tested in three independent assays.

[3] = tested on: L. donovani BD14 promastigotes; assay: Promastigotes susceptibility assay (MTT), L. donovani; conditions: Leishmania donovani; 48 h incubation, MTT; read-out: IC50 ± SD, L. donovani promastigotes
Experimental: (§1) Promastigote forms of strains of L. infantum (MHOM/PT/1988/IMT151) and L. donovani (MHOM/BD/2006/BD14) were cultured at 24 °C ± 1 °C in M199 medium (Sigma) supplemented with 20% foetal bovine serum (FBS, Sigma) and 1% penicillin-streptomycin (Sigma). L. infantum strain belongs to IHMT, Portugal cryobank collection and the L. donovani strain was kindly provided by Dr. Katrin Kuhls, Technical University of Applied Sciences Wildau, Germany. Promastigotes used for the experiments had 7 to 12 in vitro passages in culture after isolation from mice, in order to keep virulence, and were used when the stationary phase of growth was reached (day 5 to 6), corresponding to the highest promastigotes density.
(§2) For the determination of the antileishmanial activity and IC50, promastigotes of L. infantum and L. donovani were plated in 96-well flat bottom culture plates at a concentration of 5 × 10^6 parasites/mL and incubated with six serial concentrations of each compound (Table 3), in four replicates, including the control drugs, amphotericin B, miltefosine and pentamidine. One untreated control (parasites with M199 medium plus 0.5% DMSO as vehicle solution) and one blank (M199 medium alone) were also plated out in quadruplicate. After 48 h incubation at 24 °C ± 1 °C, the inhibitory activity of the compounds was evaluated using the MTT, as previously described, with an additional 4 h incubation at 36 °C. Results were expressed in terms of percentage of parasite viability relative to nontreated control and IC50 was calculated fitting the data as a non-linear regression with variable slope using a dose-response inhibitory model, in the GraphPad Prism V 8.0 program. Each compound was tested in three independent assays. […]

[4] = tested on: L. infantum IMT151 promastigotes; assay: Promastigotes susceptibility assay (MTT), L. infantum; conditions: Leishmania infantum; 48 h incubation, MTT; read-out: IC50 ± SD, L. infantum promastigotes
Experimental: as §1, §2

| IC50 [3] | IC50 [4] | Structure (SMILES) | IC50 [1] | CC50 at 48 h [2] | CC50 at 48 h ([2]; J774A.1 macrophage cells, 48 h incubation, MTT, read-out: CC50 ± SD, J774A.1 Cell Line) |
| --- | --- | --- | --- | --- | --- |
| 0.3 µM | 0.2 µM | C[C@@H]1[C@H](O)[C@@H](C)/C=C/C=C/C=C/C=C/C=C/C=C/C=C/[C@H](O[C@@H]2O[C@H](C)[C@@H](O)[C@H](N)[C@@H]2O)C[C@@H]2O[C@](O)(C[C@@H](O)C[C@@H](O)[C@H](O)CC[C@@H](O)C[C@@H](O)CC(=O)O[C@H]1C)C[C@H](O)[C@H]2C(=O)O [AmB, amphotericin B, reference compound] | 0.3 ± 0.1 µM | 71.9 ± 5.4 µM |  |
| 240 ± 34.8 µM | 125 ± 1.6 µM | CCOC(=O)C1CCC2(CC1)OOC1(OO2)C2CC3CC(C2)CC1C3 (centres unmarked) [LC138] | 23.9 ± 2.7 µM |  | 528 ± 54 µM |
